Measured values reported in patent US20190008804A1 (Repros Therapeutics Inc., priority 2016, published 2019).
Like-named read-outs stand apart in the source and are kept apart here.

Key:
ERβ [1] = biological target: T1, ERβ (Homo sapiens, UniProt Q92731); test: ERβ coactivator response; type: biochemical; set-up: concentration or dose not given beside the values
Target sequence in this assay (Q92731 whole entry): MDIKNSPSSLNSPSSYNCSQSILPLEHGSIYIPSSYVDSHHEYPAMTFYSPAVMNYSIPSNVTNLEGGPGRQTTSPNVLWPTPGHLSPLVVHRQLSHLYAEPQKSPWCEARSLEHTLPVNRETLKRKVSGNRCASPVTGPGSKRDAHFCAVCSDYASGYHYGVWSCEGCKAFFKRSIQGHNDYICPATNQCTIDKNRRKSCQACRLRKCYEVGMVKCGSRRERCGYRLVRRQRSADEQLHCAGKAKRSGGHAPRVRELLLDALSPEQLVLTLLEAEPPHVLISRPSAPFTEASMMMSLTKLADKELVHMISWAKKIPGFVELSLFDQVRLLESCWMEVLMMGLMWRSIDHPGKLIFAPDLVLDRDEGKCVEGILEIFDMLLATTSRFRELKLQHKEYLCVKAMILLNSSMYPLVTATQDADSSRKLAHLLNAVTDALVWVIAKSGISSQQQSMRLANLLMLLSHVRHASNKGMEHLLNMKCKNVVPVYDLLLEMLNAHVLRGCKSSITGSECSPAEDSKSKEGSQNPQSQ

ERβ [2] = biological target: T1, ERβ; test: Estrogen ERβ competitive radioligand binding with [3H]estradiol; set-up: made in house; host or cells: insect Sf9 cells
Procedure: IC50 values were determined by non-linear least squares regression analysis. […] The Hill coefficient (nH) defines the slope of the competitive binding curve and was determined using MathIQ™ (ID Business Solutions Ltd., UK).
Estrogen ERβ • Source: Human recombinant insect Sf9 cells
Target sequence in this assay (Q92731 264-498 limits assumed): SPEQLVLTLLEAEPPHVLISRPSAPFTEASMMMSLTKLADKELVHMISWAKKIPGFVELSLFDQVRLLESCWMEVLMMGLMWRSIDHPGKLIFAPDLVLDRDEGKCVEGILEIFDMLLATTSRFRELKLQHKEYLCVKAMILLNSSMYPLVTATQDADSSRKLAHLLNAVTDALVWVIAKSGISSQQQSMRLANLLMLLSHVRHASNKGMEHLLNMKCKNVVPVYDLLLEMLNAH

ERβ [3] = biological target: T1, ERβ; conditions: reference compound, Estrogen ERβ; cited from earlier work
Target sequence in this assay (Q92731 264-498 limits assumed): as above

[4] = Co-administration of Proellex and Androxal in cycling female baboons, 180 days daily oral; type: in vivo; conditions: daily oral 180 days, Androxal 25 mg
Procedure: All treatment groups received daily oral administration of the appropriate capsule(s) for 180 days. Daily oral dosing was started in the luteal phase. […] Daily observations of estrus (heat) were conducted for all groups.

[5] = Bone calcium in female pigs after 180 days daily oral dosing; type: in vivo
Procedure: Active agents or placebo were administered after heat (estrus) in the luteal phase. […] All treatment groups received daily oral administration of the appropriate capsule(s) for 180 days. Daily general health observations and weekly body weight measurements were conducted for all groups. Following the 6 month administration period, calcium (parts per million (ppm) dry weight (dw)) was determined in rib and femur bone samples from pigs in each treatment group: […]

[6] = third of three separate radioligand binding studies, read-out: Receptor Binding ERβ IC50

## CCNCCOc1ccc(/C(=C(/Cl)c2ccccc2)c2ccc(O)cc2)cc1 [4-OH-N-Desethyl enclomiphene, (E)-4-OH-desethyl Clomiphene]
ERβ [1]; second of two separate studies
  ERβ Coactivator Response Ant (antagonist): 104%
ERβ [2]; [6]
  IC50: 0.45 nM

## CCN(CC)CCOc1ccc(/C(=C(/Cl)c2ccccc2)c2ccc(O)cc2)cc1 [4-OH-enclomiphene, (E)-4-OH-Clomiphene]
ERβ [1]; first of two separate studies
  ERβ Coactivator Response Ant (antagonist): 60%
ERβ [2]; ERβ, hum
  nH (Hill coefficient): 1.56
ERβ [2]; ERβ, hum, Conc. 0.9 nM
  % Inh.: 67%
ERβ [2]; ERβ, hum, Cheng-Prusoff
  Ki: 0.12 nM
ERβ [2]; ERβ, hum, additional data, read-out: IC50
  IC50: 0.57 nM
ERβ [2]; based on binding and co-activator studies
  ligand preference ERα versus ERβ: better ligand for ERβ
ERβ [2]; first of three separate radioligand binding studies, read-out: Receptor Binding ERβ IC50
  IC50: 0.57 nM
ERβ [2]; second of three separate radioligand binding studies, read-out: Receptor Binding ERβ IC50
  IC50: 0.41 nM

## NCCOc1ccc(/C(=C(/Cl)c2ccccc2)c2ccccc2)cc1 [Di-de-ethyl-enclomiphene, (E)-di-desethyl Clomiphene]
ERβ [1]; first of two separate studies
  ERβ Coactivator Response Ant (antagonist): 87%

## CC/C(=C(/CC)c1ccc(O)cc1)c1ccc(O)cc1 [Diethylstilbestrol]
ERβ [3]
  Historical nH: 1.20

## CCN(CC)CCOc1ccc(/C(=C(/Cl)c2ccccc2)c2ccccc2)cc1 [Enclomiphene, trans-clomiphene]
ERβ [1]; first of two separate studies
  ERβ Coactivator Response Ant (antagonist): 65%
[4]
  cycling: prevented cycling
[4]; Proellex 12 mg
  cycling of vaginal bleeding: stopped
  swelling (turgesence) of the tissue around the tail under the control of estrogen: inhibited the swelling
[5]; female pigs, daily oral 180 days
  effect on calcium content of bone: did not affect the calcium content of bone
[5]; rib and femur bone samples, female pigs n = 3, daily oral 180 days, Proellex 12 mg, Androxal 25 mg
  Ca (ppm dw), Mean: 139300.00 ppm dw

## CC[N+]([O-])(CC)CCOc1ccc(/C(=C(/Cl)c2ccccc2)c2ccccc2)cc1 [Enclomiphene-NO, (E)-Clomiphene-NO]
ERβ [1]; first of two separate studies
  ERβ Coactivator Response Ant (antagonist): 95%

## CCNCCOc1ccc(/C(=C(/Cl)c2ccccc2)c2ccccc2)cc1 [N-Desethyl enclomiphene, (E)-desethyl Clomiphene]
ERβ [1]; second of two separate studies
  ERβ Coactivator Response Ant (antagonist): 74%
ERβ [2]; [6]
  IC50: 1.13 nM

## COCC(=O)[C@@]1(OC(C)=O)CC[C@H]2[C@@H]3CCC4=CC(=O)CCC4=C3[C@@H](c3ccc(N(C)C)cc3)C[C@@]21C [Proellex, 21-methoxy-17α-acetoxy-11β-(4 N, N-dimethylaminophenyl)-19-norpregna-4,9-diene-3,20-dione]
[4]; Proellex 12 mg
  cycling of vaginal bleeding: stopped
  endometrial thickness: increase in endometrial thickness
  swelling (turgesence) of the tissue around the tail under the control of estrogen: not proellex alone inhibited the swelling
[5]; pig, in vivo, po
  effect on calcium content of bone: did not affect the calcium content of bone
